Patent US11186576B2, “Pyrazolo[1,5-A][1,3,5]triazine and pyrazolo[1,5-A]pyrimidine derivatives as CDK inhibitors” (Aurigene Discovery Technologies Limited, priority 2015, dated 2021)

Experiments:
CDK7/CycH/MNAT1 = CDK7/CycH/MNAT1 (Homo sapiens (Human), UniProt P50613); assay: Biochemical assay for CDK7 (TR-FRET kinase assay); settings: 60 min pre-incubation, 1 mM ATP; for IC50: read-out: IC50; for inhibition at 10 µM: read-out: % inhibition @ 10 μM
Summary of the method: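 CDK7/CycH/MNAT1 (5 nM) was preincubated with compound for 60 min at room temperature, then reacted for 60 min with 100 nM ULight-MBP and 1 mM ATP in 1% DMSO. Irreversibility was probed with 20, 60 and 180 min preincubations.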

[1] = system: RNA polymerase II CTD phosphorylation (MDA-MB-231/NCI-H358 cells); assay: Inhibition of RNA polymerase II CTD phosphorylation in cell western assay; type: cell-based; settings: 4 hours incubation, phospho RNA Pol II Ser-5 or Ser-2
Method: 25000 cells (MDA-MB-231/NCI-H358) were seeded in 96 well black clear bottom plate incubated for overnight before addition of selected compound. 3 fold dilutions of selected compound diluted in DMSO starting from 10 μM, added to cells and incubated for 4 hours at 37° C., 5% CO2 incubator. Cells were washed once with 100 μl of phosphate buffered saline (sigma #P3813), then fixed with 100 μl/well of 4% Para formaldehyde for 60 min at room temperature, in dark. The cells were washed 3 times with 100 μl of wash buffer (PBS with 0.1% Triton-X-100), later blocked for 2 hours at room temperature in blocking buffer (5% BSA in PBST). Cells were stained overnight at 4° C. with Phospho RNA Pol II (S5) (Millipore #04-1572, Abcam #5131) or Phospho RNA Pol II (Ser-2), antibody (Bethyl labs #A300-654-A) in blocking buffer. Post incubation cells were washed with Delifia wash buffer (Perkin Elmer #4010-0010). Cells were treated with LANCE secondary antibodies (LANCE® Eu-W1024 perkin elmer #AD-0076 for phospho Ser-5 CTD RNA pol-II and Delfia Eu-N1 anti rabbit IgG Perkin elmer #AD0106 for phospho Ser-2 CTD RNA pol-II) for 2 hours in assay buffer (Perkin Elmer #1244-111), Cells were washed 3 times with Delfia wash buffer post incubation, Enhancement solution (Perkin Elmer #1244-105) added and incubated for 20 mins. Europium readings were taken in Victor-3 instrument. Cell normalization was done using Hoechst dye (0.5 μg/ml).
Selected compounds were screened in the above mentioned assay procedure. The EC50 values are summarised in the below table; wherein group “A” refers to an EC50 value of less than or equal to 1 μM, group “B” refers to EC50 value in range of 1 to 10 μM and group “C” refers to EC50 value of greater than 10 μM.

Sequence of CDK7/CycH/MNAT1 (P50613 whole entry): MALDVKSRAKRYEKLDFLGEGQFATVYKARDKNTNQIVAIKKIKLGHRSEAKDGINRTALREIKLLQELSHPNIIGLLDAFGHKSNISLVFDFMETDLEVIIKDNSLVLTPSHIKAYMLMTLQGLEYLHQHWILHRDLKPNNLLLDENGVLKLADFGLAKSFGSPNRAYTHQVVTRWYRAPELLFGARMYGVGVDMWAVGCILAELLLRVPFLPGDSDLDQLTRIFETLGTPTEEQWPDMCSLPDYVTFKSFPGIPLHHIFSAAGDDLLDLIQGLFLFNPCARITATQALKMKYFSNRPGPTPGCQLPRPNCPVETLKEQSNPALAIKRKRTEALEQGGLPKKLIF
Sequence of CDK7/CycH/MNAT1 (P51946 whole entry partner): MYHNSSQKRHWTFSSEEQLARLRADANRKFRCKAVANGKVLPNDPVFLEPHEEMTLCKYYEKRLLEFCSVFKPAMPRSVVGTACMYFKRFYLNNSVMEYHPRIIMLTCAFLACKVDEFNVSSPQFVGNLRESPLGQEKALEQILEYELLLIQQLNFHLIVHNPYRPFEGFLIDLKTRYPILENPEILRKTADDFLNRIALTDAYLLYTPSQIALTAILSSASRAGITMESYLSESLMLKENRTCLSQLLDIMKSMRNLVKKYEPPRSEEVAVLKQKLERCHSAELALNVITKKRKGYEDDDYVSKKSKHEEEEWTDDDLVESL
Sequence of CDK7/CycH/MNAT1 (P51948 whole entry partner): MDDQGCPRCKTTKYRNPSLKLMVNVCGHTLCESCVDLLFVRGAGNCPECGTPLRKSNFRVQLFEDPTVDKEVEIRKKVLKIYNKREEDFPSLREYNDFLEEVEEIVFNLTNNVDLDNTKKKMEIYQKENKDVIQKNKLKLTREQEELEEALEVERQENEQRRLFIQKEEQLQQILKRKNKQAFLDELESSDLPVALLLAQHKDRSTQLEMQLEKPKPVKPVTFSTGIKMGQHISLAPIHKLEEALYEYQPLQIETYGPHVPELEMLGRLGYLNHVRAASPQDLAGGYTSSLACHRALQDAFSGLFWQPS

Row | Structure (SMILES) | % inhibition @ 10 μM (CDK7/CycH/MNAT1; 10 μM compound) | IC50 (CDK7/CycH/MNAT1) | EC50 [1] | inhibition at 10 µM (CDK7/CycH/MNAT1; 10 μM compound)
1 | C=CC(=O)N1CCC(C(=O)Nc2cccc(CNc3nc(OC4CCN(C)CC4)nc4c(C(C)C)cnn34)c2)C1 (single isomer, unassigned) [Compound 110, 1-acryloyl-N-(3-(((8-isopropyl-2-((1-methylpiperidin-4-yl)oxy)pyrazolo[1,5-a][1,3,5]triazin-4-yl)amino)methyl)phenyl)pyrrolidine-3-carboxamide] | 99% | < 300 nM | 1000 to 10000 nM | 
2 | C=CC(=O)N[C@H]1CC[C@@H](C(=O)Nc2cccc(CNc3nc(NC4CCOCC4)nc4c(C(C)C)cnn34)c2F)CC1 [Compound 38, (1,4-cis)-4-acrylamido-N-(2-fluoro-3-(((8-isopropyl-2-((tetrahydro-2H-pyran-4-yl)amino)pyrazolo[1,5-a][1,3,5]triazin-4-yl)amino)methyl)phenyl)cyclohexane-1-carboxamide] |  | < 300 nM | 1000 to 10000 nM | 95%
3 | C=CC(=O)N1CCC(C(=O)Nc2cccc(CNc3nc(NC4CCOCC4)nc4c(C(C)C)cnn34)c2)C1 (single isomer, unassigned) [Compound 5, 1-acryloyl-N-(3-(((8-isopropyl-2-((tetrahydro-2H-pyran-4-yl)amino)pyrazolo[1,5-a][1,3,5]triazin-4-yl)amino)methyl)phenyl)pyrrolidine-3-carboxamide] |  | < 300 nM | 1000 to 10000 nM | 94%
4 | C=CC(=O)N1CCC(C(=O)Nc2cccc(CNc3nc(OC4CCN(C)CC4)nc4c(C(C)C)cnn34)c2)C1 (stereo not drawn) [Compound 108, 1-acryloyl-N-(3-(((8-isopropyl-2-((1-methylpiperidin-4-yl)oxy)pyrazolo[1,5-a][1,3,5]triazin-4-yl)amino)methyl)phenyl)pyrrolidine-3-carboxamide] |  | < 300 nM | 1000 to 10000 nM | 99%
5 | C=CC(=O)N1CCC(C(=O)Nc2cccc(CNc3nc(OC4CCN(C)CC4)nc4c(CC)cnn34)c2)CC1 [Compound 88, 1-acryloyl-N-(3-(((8-ethyl-2-((1-methylpiperidin-4-yl)oxy)pyrazolo [1,5-a][1,3,5]triazin-4-yl)amino)methyl)phenyl)piperidine-4-carboxamide] |  | < 300 nM | 1000 to 10000 nM | 97%
6 | C=CC(=O)N1CC(C(=O)Nc2cccc(CNc3nc(NC4CCOCC4)nc4c(C(C)C)cnn34)c2)C1 [Compound 18, 1-acryloyl-N-(3-(((8-isopropyl-2-((tetrahydro-2H-pyran-4-yl)amino)pyrazolo[1,5-a][1,3,5]triazin-4-yl)amino)methyl)phenyl)azetidine-3-carboxamide] |  | < 300 nM | ≤ 1000 nM | 101%
7 | C=CC(=O)N[C@H]1CC[C@@H](C(=O)Nc2cccc(CNc3nc(OC4CCN(C)C4)nc4c(C(C)C)cnn34)c2)CC1 (stereo partly drawn) [Compound 101, (1,4-cis)-4-acrylamido-N-(3-(((8-isopropyl-2-((1-methylpyrrolidin-3-yl)oxy)pyrazolo[1,5-a][1,3,5]triazin-4-yl)amino)methyl)phenyl)cyclohexane-1-carboxamide] |  | < 300 nM | 1000 to 10000 nM | 96%
8 | C=CC(=O)N1CCC(C(=O)Nc2cccc(CNc3nc(OC4CCOCC4)nc4c(C(C)C)cnn34)c2)C1 (stereo not drawn) [Compound 95, 1-acryloyl-N-(3-(((8-isopropyl-2-((tetrahydro-2H-pyran-4-yl)oxy)pyrazolo[1,5-a][1,3,5]triazin-4-yl)amino)methyl)phenyl)pyrrolidine-3-carboxamide] |  | < 300 nM | ≤ 1000 nM | 93%
9 | C=CC(=O)N1CCC(C(=O)Nc2cccc(CNc3nc(NC4CCOCC4)nc4c(C(C)C)cnn34)c2)C1 (stereo not drawn) [Compound 4, 1-acryloyl-N-(3-(((8-isopropyl-2-((tetrahydro-2H-pyran-4-yl)amino)pyrazolo[1,5-a][1,3,5]triazin-4-yl)amino)methyl)phenyl)pyrrolidine-3-carboxamide] |  | < 300 nM | ≤ 1000 nM | 93%
10 | C=CC(=O)NC1(C(=O)Nc2cccc(CNc3nc(NC4CCOCC4)nc4c(C(C)C)cnn34)c2)CC1 [Compound 83, 1-acrylamido-N-(3-(((8-isopropyl-2-((tetrahydro-2H-pyran-4-yl)amino)pyrazolo[1,5-a][1,3,5]triazin-4-yl)amino)methyl)phenyl)cyclopropane-1-carboxamide] |  | < 300 nM | ≤ 1000 nM | 96%
11 | CC(C)c1cnn2c(NCc3cccc(NC(=O)C4CCN(C(=O)/C=C/CN(C)C)C4)c3)nc(NC3CCOCC3)nc12 (stereo not drawn) [Compound 69, (E)-1-(4-(dimethylamino)but-2-enoyl)-N-(3-(((8-isopropyl-2-((tetrahydro-2H-pyran-4-yl)amino)pyrazolo[1,5-a][1,3,5]triazin-4-yl)amino)methyl)phenyl)pyrrolidine-3-carboxamide] |  | < 300 nM | 1000 to 10000 nM | 98%
12 | C=CC(=O)N1CCC1C(=O)Nc1cccc(CNc2nc(NC3CCOCC3)nc3c(C(C)C)cnn23)c1 (stereo not drawn) [Compound 2, 1-acryloyl-N-(3-(((8-isopropyl-2-((tetrahydro-2H-pyran-4-yl)amino)pyrazolo[1,5-a][1,3,5]triazin-4-yl)amino)methyl)phenyl)azetidine-2-carboxamide] |  | < 300 nM | ≤ 1000 nM | 98%
13 | C=CC(=O)N1CCC(C(=O)Nc2cccc(CNc3nc(OC4CCN(C)CC4)nc4c(C(C)C)cnn34)c2)CC1 [Compound 111, 1-acryloyl-N-(3-(((8-isopropyl-2-((1-methylpiperidin-4-yl)oxy)pyrazolo[1,5-a][1,3,5]triazin-4-yl)amino)methyl)phenyl)piperidine-4-carboxamide] |  | < 300 nM | 1000 to 10000 nM | 95%
14 | C=CC(=O)N1CCCC(C(=O)Nc2cccc(CNc3nc(NC4CCOCC4)nc4c(C(C)C)cnn34)c2)C1 (stereo not drawn) [Compound 1, 1-acryloyl-N-(3-(((8-isopropyl-2-((tetrahydro-2H-pyran-4-yl)amino)pyrazolo[1,5-a][1,3,5]triazin-4-yl)amino)methyl)phenyl)piperidine-3-carboxamide] |  | 300 to 1000 nM | ≤ 1000 nM | 88%
15 | C=CC(=O)N1CCCC(C(=O)Nc2cccc(CNc3nc(OC4CCN(C)CC4)nc4c(C(C)C)cnn34)c2)C1 (stereo not drawn) [Compound 116, 1-acryloyl-N-(3-(((8-isopropyl-2-((1-methylpiperidin-4-yl)oxy)pyrazolo[1,5-a][1,3,5]triazin-4-yl)amino)methyl)phenyl)piperidine-3-carboxamide] |  | < 300 nM | 1000 to 10000 nM | 92%
16 | C=CC(=O)N1CCC(C(=O)Nc2cccc(CNc3nc(OC4CCN(C)CC4)nc4c(C(C)C)cnn34)c2)C1 (single isomer, unassigned) [Compound 109, 1-acryloyl-N-(3-(((8-isopropyl-2-((1-methylpiperidin-4-yl)oxy)pyrazolo[1,5-a][1,3,5]triazin-4-yl)amino)methyl)phenyl)pyrrolidine-3-carboxamide] |  | < 300 nM | 1000 to 10000 nM | 98%
